Source: patent US9193708B2, “Non-flushing niacin analogues, and methods of use thereof” (Trustees of Tufts College, priority 2006, dated 2015)

Key:
[1] = tested on: Hep-G2 cells; assay: HDL uptake by Hep-G2 cells (125I-labelled HDL), proxy for HDL-raising activity; type: cell-based; conditions: compared with niacin
Procedure: • Split HepG2 cells in 24 well plates 2˜3 days prior to niacin treatment, 0.5 mL complete DMEM media is added per well • Cells were pre-incubated with niacin (1 mM) for 24˜48 h • Wash HepG2 cells 3 times with PBS • Incubate HepG2 cells in […] medium C(DMEM containing 5 mg/mL fatty acid free BSA), containing ^125I-labelled HDL ([…] with specificity ofo 300-500 cpm/ng HDL protein. For 16 h • Aspirate the media and wash the cells with 0.5 mL of 0.1 mg/mL BSA-PBS twice, and with PBS twice • Cells were digested in […] of 1 N NaOH at room temperature overnight • […] of cell lysate was used for gamma-counting • […] of cell lysate was used for protein assay by BCA method • HDL uptake activity is expressed as “cpm of ^125I-HDL uptake/mg of cell protein.

[2] = tested on: THP-1 macrophages; assay: PGD2 release by THP-1 macrophages, proxy for flush inducing activity; type: cell-based; conditions: compared with niacin
Procedure: THP-1 cells were grown in RPMI complete media • 2×10^6 cells/well in 24 well flask were seeded in serum free media containing […] of PMA. Cells were allowed to differentiate into macrophages for 12 hours • The media was replaced with complete RPMI media and incubation continued for 5 hours • After incubation, media was aspirated and cells were treated with niacin and niacin analogs in 1 mL of serum free RPMI media. • Incubated for 30 min. […] of media was collected, PGD2 secreted was derivitized into stable MOX derivative. • PGD2 in the sample was assayed by using PGD2 assay kit from Cayman chemicals. Incorporation By Reference

[3] = humans, daily oral doses of 2-3 g; cited from earlier work

Row | Structure (SMILES) | reduction of HDL uptake / HDL-raising activity relative to niacin [1] | induction of PGD2 release / flush inducing activity relative to niacin [2] | effect on Lp(a) [3]
1 | O=C(O)C/C=C/c1cccnc1 [Compound 2035, 4-pyridin-3-yl-but-3-enoic acid] | essentially as well as niacin | very much less ability to induce PDG2 release | –
2 | O=C(O)c1cccnc1 [niacin] | – | – | reduce Lp(a)
